From patent US9801850B2, “Antibacterial agent” (OSAKA UNIVERSITY, priority 2009, dated 2017) come the findings set out here.

In brackets after ≈: the same amount, converted by molar mass.

The test system of assay [1] is MRSA clinical isolate No. 6. Briefly: MIC, broth microdilution (Example 2, Table 6). The format is cell-based, Staphylococcus aureus.
The test system of assay [2] is MRSA clinical isolate No. 10. Briefly: MIC, broth microdilution (Example 2, Table 6). The format is cell-based, Staphylococcus aureus.
Assay [3] has as its system Bacillus subtilus ATCC6051. Briefly: Antibacterial spectrum MIC (Table 7). It counts as cell-based. The procedure: (§1) Methicillin-susceptible Staphylococcus aureus (MSSA) NCTC8325 and methicillin-resistant Staphylococcus aureus (MRSA) ATCC43300 were used as bacteria. The bacteria of each type were cultured using Mueller-Hinton Broth (MH-broth, Difco) as a medium. Then, the minimum inhibitory concentration (MIC) of each of the EGCG derivatives was measured by a broth microdilution method in accordance with the Clinical and Laboratory Standards Institute (CLSI) guidelines (hereinafter the same).
(§2) First, each of the EGCG derivatives was dissolved in 100% dimethyl sulfoxide (DMSO, Wako Pure Chemical Industries, Ltd.) so that the concentration thereof became 5120 μg/ml. The resultant solution was diluted with DMSO or sterile distilled water so as to prepare two-fold dilution series of antibacterial agent solutions. […] Each of these antibacterial agent solutions was dispensed to wells of a 96-well plate. The concentration of the EGCG derivative in the antibacterial agent solution dispensed to the wells was set to be 10 times as high as the final concentration. On the other hand, the bacteria were cultured in the MH-broth at 37° C. overnight, and the thus-obtained pre-culture solution was diluted with a new MH-broth so that the concentration thereof in the MH-broth became 10^−4 (10^4-fold dilution), thus preparing a bacterial culture solution of about 1×10^5 CFU/ml (CFU: Colony Forming Unit, the number of viable cells). The bacterial culture solution was further added to each well, and the mixture was cultured at 37° C. for 18 hours. The ratio (volume ratio) between the antibacterial agent solution and the bacterial culture solution added to each well was set to 1:9 (the antibacterial agent solution:the bacterial culture solution), and the volume of the mixture of them per well was set to 100 μl in total. The final concentration of the EGCG derivative in the mixture was set to 8 μg/ml to 512 μg/ml, and the number of viable cells in the mixture was set to about 1×10^5 CFU/ml. Then, after the completion of the culture, the MIC was determined. Also, the turbidity (OD600 nm) was measured using a plate reader so as to identify minor differences.
(§3) Regarding the respective type strains shown in Tables 7 and 8 below, the MIC measurement was performed using the antibacterial agent solutions of Example 2 in the same manner as described in Section (2) of Example 1, except for the following. The antibacterial agent solutions were prepared by dissolving the EGCG derivatives of Example 2 in 100% DMSO and then diluting the resultant mixtures with sterile distilled water. The respective strains were derived from ATCC or NCTC. As Moraxella catarrhalis and Aspergillus fumigatus, clinical isolates thereof without an acquired resistance mechanism were used. For nutrient-rich bacteria, namely, Streptococcus pneumoniae ATCC49619, Streptococcus pyogenes ATCC19615, Streptococcus agalactiae ATCC13813, Moraxella catarrhalis, and Haemophilis influenzae ATCC49766, Strepto Haemo supplement (Eiken Chemical Co., Ltd.) was added to media for culturing them. The MIC measurement with respect to fungi was carried out by a broth microdilution method using a RPMI1640/MOPS (pH 7.0) medium in accordance with CLSI guidelines. About 2×10^3 cells/ml of fungi were inoculated to the medium. After the culture at 35° C. for 24 to 48 hours, the MIC was determined. Also, regarding the antibacterial agent solution of Comparative Example 2, the MIC was measured in the same manner.

The test system of assay [4] is Staphylococcus epidermis ATCC14990. Briefly: Antibacterial spectrum MIC (Table 7). The format is cell-based. To be noted: for MIC: Staphylococcus epidermis ATCC14990. As to the method:
as §1, §2, §3

In assay [5] the test system is Serratia marcescens ATCC13880. Briefly: Antibacterial spectrum MIC (Table 7). It counts as cell-based. The procedure:
as §1, §2, §3

In assay [6] the test system is Bacillus cereus ATCC14579. Briefly: Antibacterial spectrum MIC (Table 7). It counts as cell-based. The procedure:
as §1, §2, §3

Assay [7] concerns Streptococcus pyogenes ATCC19615. Briefly: Antibacterial spectrum MIC (Table 7). It counts as cell-based. To be noted: Strepto Haemo supplement. The procedure:
as §1, §2, §3

Assay [8] concerns Neisseria gonorrhoeae ATCC49226. Briefly: Antibacterial spectrum MIC (Table 7). The format is cell-based. As to the method:
as §1, §2, §3

The subject of assay [9] is Staphylococcus aureus ATCC43300 (MRSA). Briefly: Antibacterial spectrum MIC (Table 7). It counts as cell-based. As to the method:
as §1, §2, §3

Assay [10] deals with Micrococcus lutus ATCC9341. Briefly: Antibacterial spectrum MIC (Table 7). It counts as cell-based. As to the method: as §1, §2, §3
For the next assay, the system named is Moraxella catarrhalis. Briefly: Antibacterial spectrum MIC (Table 7). The format is cell-based. To be noted: Moraxella catarrhalis clinical isolate, Strepto Haemo supplement. The procedure: as §1, §2, §3
Assay [11] relates to Stenotrophomonas maltophilia ATCC13637. Briefly: Antibacterial spectrum MIC (Table 7). It counts as cell-based. The procedure: as §1, §2, §3
Assay [12] relates to Enterococcus faecalis ATCC29212. Briefly: Antibacterial spectrum MIC (Table 7). It counts as cell-based. As to the method:
as §1, §2, §3

For assay [13], the system named is Enterobacter aerogenes ATCC13048. Briefly: Antibacterial spectrum MIC (Table 7). It counts as cell-based. The procedure: as §1, §2, §3
Assay [14] deals with Escherichia coli ATCC25922. Briefly: Antibacterial spectrum MIC (Table 7). It counts as cell-based. As to the method: as §1, §2, §3
The subject of assay [15] is Streptococcus agalactiae ATCC13813. Briefly: Antibacterial spectrum MIC (Table 7). The settings on record: Strepto Haemo supplement. The format is cell-based. As to the method: as §1, §2, §3
The test system of assay [16] is Yersinia enterocolitica ATCC9610. Briefly: Antibacterial spectrum MIC (Table 7). The format is cell-based. The procedure:
as §1, §2, §3

In the next assay the test system is Neisseria meningitidis. Briefly: Antibacterial spectrum MIC (Table 7). The format is cell-based. The procedure:
as §1, §2, §3

The subject of assay [17] is Staphylococcus aureus NCTC8325. Briefly: Antibacterial spectrum MIC (Table 7). The format is cell-based. The procedure:
as §1, §2, §3

The subject of assay [18] is Haemophilis influenzae ATCC49766. Briefly: Antibacterial spectrum MIC (Table 7). The format is cell-based. The settings on record: Strepto Haemo supplement. As to the method:
as §1, §2, §3

In assay [19] the test system is Streptococcus pneumoniae ATCC49619. Briefly: Antibacterial spectrum MIC (Table 7). It counts as cell-based. To be noted: Strepto Haemo supplement. As to the method:
as §1, §2, §3

Assay [20] has as its system Klebsiella oxytoca ATCC8724. Briefly: Antibacterial spectrum MIC (Table 7). The format is cell-based. As to the method: as §1, §2, §3
Assay [21] deals with Enterobacter cloacae ATCC13047. Briefly: Antibacterial spectrum MIC (Table 7). The format is cell-based. The procedure:
as §1, §2, §3

EGCG-palmitoleate [EGCG-C16E]: the MIC in [1] amounted to 16 µg/mL; in assay [2], 16 µg/mL; in assay [3] it was 16 µg/mL; in assay [4], 64 µg/mL; in assay [5] it was 64 µg/mL; in assay [6], 16 µg/mL. For the same molecule, the MIC turned out to be 64 µg/mL in assay [7]; 16 µg/mL in assay [8]; 64 µg/mL in assay [9]; 64 µg/mL in assay [10]; 64 µg/mL in the assay on Moraxella catarrhalis; 32 µg/mL in [11]. Also, the MIC is 64 µg/mL in assay [12]; 32 µg/mL in [13]; 64 µg/mL in assay [14]; greater than 64 µg/mL in [15]; 32 µg/mL in assay [16]; 16 µg/mL in the assay with Neisseria meningitidis. The MIC was determined as 16 µg/mL in assay [17]; 16 µg/mL in [18]; 16 µg/mL in assay [19]; 64 µg/mL in assay [20]; 64 µg/mL in assay [21].
Take EGCG-dioctanoate [EGCG-C8×2]: the MIC was determined as 16 µg/mL in assay [1]; 16 µg/mL in [2]; 32 µg/mL in assay [3]; 64 µg/mL in [4]; 64 µg/mL in assay [5]; 16 µg/mL in assay [6]. For the same molecule, the MIC came out at 32 µg/mL in assay [7]; 16 µg/mL in assay [8]; 64 µg/mL in assay [9]; 64 µg/mL in [10]; 32 µg/mL against Moraxella catarrhalis; 32 µg/mL in assay [11]. The MIC was found to be 64 µg/mL in assay [12]; 16 µg/mL in assay [13]; 64 µg/mL in [14]; 64 µg/mL in [15]; 32 µg/mL in assay [16]; 16 µg/mL in the assay on Neisseria meningitidis. In addition, the MIC stood at 16 µg/mL in assay [17]; 16 µg/mL in assay [18]; 16 µg/mL in [19]; 64 µg/mL in assay [20]; 64 µg/mL in assay [21].
For `O=C(O[C@@H]1Cc2c(O)cc(O)cc2O[C@@H]1c1cc(O)c(O)c(O)c1)c1cc(O)c(O)c(O)c1` [EGCG, Epigallocatechin gallate, reference compound], the MIC in assay [1] is greater than 128 µg/mL; in assay [2], greater than 128 µg/mL; in assay [3] it was 64 µg/mL (≈ 140 µM); in assay [4], 128 µg/mL (≈ 279 µM); in assay [5], 128 µg/mL (≈ 279 µM); in assay [6], 64 µg/mL (≈ 140 µM). Besides, the MIC in [7] is 128 µg/mL (≈ 279 µM); in [8], 32 µg/mL (≈ 69.8 µM); in [9], 128 µg/mL (≈ 279 µM); in [10], 128 µg/mL (≈ 279 µM); with Moraxella catarrhalis, 128 µg/mL (≈ 279 µM); in [11], 64 µg/mL (≈ 140 µM). In addition, the MIC in assay [12] is 256 µg/mL (≈ 558 µM); in assay [13] it was 64 µg/mL (≈ 140 µM); in [14] it was 128 µg/mL (≈ 279 µM); in [15] it was 256 µg/mL (≈ 558 µM); in assay [16], 64 µg/mL (≈ 140 µM); against Neisseria meningitidis, 32 µg/mL (≈ 69.8 µM). Moreover, the MIC in assay [17] came out at 128 µg/mL (≈ 279 µM); in [18] it was 32 µg/mL (≈ 69.8 µM); in assay [19], 32 µg/mL (≈ 69.8 µM); in assay [20], 128 µg/mL (≈ 279 µM); in assay [21], 128 µg/mL (≈ 279 µM).
EGCG-stearate [EGCG-C18]: the MIC in assay [1] came out at 32 µg/mL; in assay [2], 32 µg/mL; in assay [3], 32 µg/mL; in [4] it was 32 µg/mL; in assay [5] it was 64 µg/mL; in assay [6] it was 32 µg/mL. For the same molecule, the MIC was determined as 64 µg/mL in [7]; 16 µg/mL in assay [8]; 32 µg/mL in assay [9]; 64 µg/mL in assay [10]; 64 µg/mL in the assay on Moraxella catarrhalis; 32 µg/mL in assay [11]. Moreover, the MIC turned out to be 32 µg/mL in assay [12]; 32 µg/mL in assay [13]; 64 µg/mL in [14]; 64 µg/mL in assay [15]; 32 µg/mL in assay [16]; 16 µg/mL against Neisseria meningitidis. In addition, the figures for the MIC in [17], in assay [20] and in assay [21] were 32 µg/mL, 64 µg/mL and 64 µg/mL, respectively. In assay [4] (Staphylococcus epidermids ATCC14990, comparison among EGCG derivatives), the antibacterial effect result is reported as “strongest antibacterial effect”.
On to EGCG-α-linoleate [EGCG-C18TE], for which the MIC was found to be 16 µg/mL in assay [1]; 16 µg/mL in assay [2]; 32 µg/mL in assay [3]; 64 µg/mL in assay [4]; 64 µg/mL in assay [5]; 32 µg/mL in [6]. The MIC in assay [7] amounted to 64 µg/mL; in assay [8] it was 16 µg/mL; in assay [9], 64 µg/mL; in [10] it was 64 µg/mL; in the assay with Moraxella catarrhalis, 32 µg/mL; in [11] it was 32 µg/mL. Further, the MIC was 64 µg/mL in assay [12]; 32 µg/mL in [13]; 64 µg/mL in [14]; greater than 64 µg/mL in assay [15]; 32 µg/mL in assay [16]; 16 µg/mL in the assay with Neisseria meningitidis. Moreover, the MIC in assay [17] amounted to 16 µg/mL; in assay [18] it was 16 µg/mL; in assay [19], 16 µg/mL; in assay [20], 64 µg/mL; in assay [21], 64 µg/mL.
